Measurements reported in PubChem BioAssay AID330 (DTP/NCI, 2004).
Values joined by “and” are separate entries in the source; they are usually repeats but may differ in a detail not shown here. Equal entries are not always repeated. Inconclusive results and toxic doses are left out. The calls were made as follows: active = survival T/C of 150% or more; inactive = T/C below 125% in these data.

Tested on: P388 leukemia ip, CD2F1 mice, survival T/C
Assay: NCI In Vivo Anticancer Drug Screen. Data for tumor model P388 Leukemia (intraperitoneal) in CD2F1 (CDF1) mice
Conditions: endpoint: median survival time, higher = longer survival
Procedure, shortened: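 Mice carrying the transplanted tumor received test compound or vehicle. Survival was recorded in each group, and the value is the treated-group measurement divided by that of the vehicle-treated control group.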

[1] = dose: 12.5 mg/kg/injection, schedule: Q01DX009 (ip), vehicle: saline with Tween-80
[2] = dose: 25.0 mg/kg/injection, schedule: Q01DX009 (ip), vehicle: saline with Tween-80
[3] = dose: 50.0 mg/kg/injection, schedule: Q01DX009 (ip), vehicle: saline with Tween-80
[4] = dose: 100.0 mg/kg/injection, schedule: Q01DX009 (ip), vehicle: saline with Tween-80
[5] = dose: 200.0 mg/kg/injection, schedule: Q01DX009 (ip), vehicle: saline with Tween-80
[6] = dose: 60.0 mg/kg/injection, schedule: Q01DX005 (ip), vehicle: saline
[7] = dose: 120.0 mg/kg/injection, schedule: Q01DX005 (ip), vehicle: saline
[8] = dose: 240.0 mg/kg/injection, schedule: Q01DX005 (ip), vehicle: saline
[9] = dose: 100.0 mg/kg/injection, schedule: Q04DX003 (ip), vehicle: Klucel (hydroxypropylcellulose) (HPC)
[10] = dose: 200.0 mg/kg/injection, schedule: Q04DX003 (ip), vehicle: Klucel (hydroxypropylcellulose) (HPC)
[11] = dose: 400.0 mg/kg/injection, schedule: Q04DX003 (ip), vehicle: Klucel (hydroxypropylcellulose) (HPC)
[12] = dose: 100.0 mg/kg/injection, schedule: Q01DX009 (ip), vehicle: Klucel (hydroxypropylcellulose) (HPC)
[13] = dose: 200.0 mg/kg/injection, schedule: Q01DX009 (ip), vehicle: Klucel (hydroxypropylcellulose) (HPC)
[14] = dose: 50.0 mg/kg/injection, schedule: Q01DX005 (ip), vehicle: saline with Tween-80
[15] = dose: 100.0 mg/kg/injection, schedule: Q01DX005 (ip), vehicle: saline with Tween-80
[16] = dose: 200.0 mg/kg/injection, schedule: Q01DX005 (ip), vehicle: saline with Tween-80
[17] = dose: 50.0 mg/kg/injection, schedule: Q01DX005 (ip), vehicle: Klucel (hydroxypropylcellulose) (HPC)
[18] = dose: 50.0 mg/kg/injection, schedule: Q01DX009 (ip), vehicle: Klucel (hydroxypropylcellulose) (HPC)

Measured: T/C

COc1ccc2c(c1)N(CCC1CCCCN1C)c1ccccc1S2 (configuration not stated)
inactive: dose: 12.5 mg/kg/injection, schedule: Q04DX003 (ip), vehicle: saline 116 % of control | dose: 25.0 mg/kg/injection, schedule: Q04DX003 (ip), vehicle: saline 115 % of control | dose: 50.0 mg/kg/injection, schedule: Q04DX003 (ip), vehicle: saline 119 % of control

CC(Cc1ccccc1)NN1CCOC(c2ccccc2)C1C (configuration not stated)
inactive: dose: 100.0 mg/kg/injection, schedule: Q04DX002 (ip), vehicle: saline 102 % of control | dose: 200.0 mg/kg/injection, schedule: Q04DX002 (ip), vehicle: saline 107 % of control | dose: 400.0 mg/kg/injection, schedule: Q04DX002 (ip), vehicle: saline 101 % of control

N#CCCSC(=S)C1CCCC1=N (configuration not stated)
inactive: [1] 114 % of control and 123 % of control | [2] 110 % of control and 116 % of control | [3] 104 % of control and 109 % of control | [4] 102 % of control and 116 % of control

OCC1OC(n2cnc3c(=S)nc[nH]c32)CC1O (configuration not stated)
inactive: dose: 167.0 mg/kg/injection, schedule: Q01DX009 (ip), vehicle: saline with Tween-80 100 % of control | dose: 267.0 mg/kg/injection, schedule: Q01DX009 (ip), vehicle: saline with Tween-80 113 % of control

O=S(=O)(/N=C/c1ccccc1)c1ccc(Cl)cc1
inactive: [1] 101 % of control | [2] 101 % of control | [3] 95 % of control | [4] 96 % of control

Cc1ccc(NC(=O)Oc2ccc(Cl)c(C)c2)c([N+](=O)[O-])c1
inactive: [4] 87 % of control | [5] 88 % of control

O=C1NCC(CCl)O1 (configuration not stated)
inactive: [6] 100 % of control | [7] 101 % of control | [8] 102 % of control

CCCCN(CCCC)C(=S)S
inactive: dose: 15.0 mg/kg/injection, schedule: Q01DX005 (ip), vehicle: Klucel (hydroxypropylcellulose) (HPC) 105 % of control | dose: 30.0 mg/kg/injection, schedule: Q01DX005 (ip), vehicle: Klucel (hydroxypropylcellulose) (HPC) 98 % of control | dose: 60.0 mg/kg/injection, schedule: Q01DX005 (ip), vehicle: Klucel (hydroxypropylcellulose) (HPC) 88 % of control

Nc1cc2c(cc1C=O)OCO2
inactive: [9] 99 % of control | [10] 93 % of control | [11] 107 % of control

O=[N+]([O-])c1ccc(N/N=C/c2ccnc3ccccc23)cc1
inactive: [12] 95 % of control | [13] 86 % of control | dose: 400.0 mg/kg/injection, schedule: Q01DX009 (ip), vehicle: Klucel (hydroxypropylcellulose) (HPC) 95 % of control

O=CNC(Cc1cccc(N(CCCl)CCCl)c1)C(=O)O (configuration not stated)
inactive: dose: 25.0 mg/kg/injection, schedule: Q01DX009 (ip), vehicle: saline sonified 95 % of control

C[Si](C)(C)C1=CC[C@H]2C(=O)N(c3ccccc3)C(=O)[C@H]2C1=O
inactive: [14] 107 % of control | [15] 118 % of control | [16] 111 % of control

COc1cc2c(cc1O)CCCCC2
inactive: dose: 100.0 mg/kg/injection, schedule: Q01DX009 (sc), vehicle: olive oil, sesame oil, peanut oil 101 % of control | dose: 200.0 mg/kg/injection, schedule: Q01DX009 (sc), vehicle: olive oil, sesame oil, peanut oil 101 % of control | dose: 400.0 mg/kg/injection, schedule: Q01DX009 (sc), vehicle: olive oil, sesame oil, peanut oil 104 % of control

COC1CCC(NC(=O)N(N=O)C2CCC(OC)CC2)CC1 (configuration not stated)
inactive: dose: 25.0 mg/kg/injection, schedule: Q01DX001 (ip), vehicle: distilled water + Tween-80 109 % of control | dose: 50.0 mg/kg/injection, schedule: Q01DX001 (ip), vehicle: distilled water + Tween-80 100 % of control | dose: 100.0 mg/kg/injection, schedule: Q01DX001 (ip), vehicle: distilled water + Tween-80 100 % of control | dose: 200.0 mg/kg/injection, schedule: Q01DX001 (ip), vehicle: distilled water + Tween-80 105 % of control

NNC(=O)N/N=C/c1ccccc1Cl
inactive: dose: 25.0 mg/kg/injection, schedule: Q01DX005 (ip), vehicle: Klucel (hydroxypropylcellulose) (HPC) 96 % of control | [17] 112 % of control

CC1(Cc2c[nH]c(=O)[nH]c2=O)C(=O)NC(=O)NC1=O
inactive: [18] 105 % of control | [12] 100 % of control | [13] 98 % of control

COc1cc(NC(=O)SC2=NCCS2)cc(OC)c1
inactive: [3] 107 % of control | [4] 110 % of control | [5] 100 % of control

C1CC[N-]CC1.CC(=O)Nc1[c-]cccc1.CC(=O)O.[Pd+2]
inactive: dose: 25.0 mg/kg/injection, schedule: Q01DX005 (ip), vehicle: saline with Tween-80 112 % of control and 95 % of control | [14] 107 % of control and 114 % of control and 119 % of control | [15] 111 % of control

Cc1ccc(-c2csc3nc(C)cc(=O)n23)cc1
inactive: [9] 111 % of control | [10] 105 % of control | [11] 106 % of control

Nn1c(-c2ccc(Cl)c(Cl)c2)nc2ccccc2c1=O
inactive: [3] 89 % of control | [4] 99 % of control | [5] 98 % of control

COc1ccc(C2c3cc(O)c(OC)cc3Oc3cc(OC)c(O)cc32)cc1
inactive: [17] 87 % of control | dose: 100.0 mg/kg/injection, schedule: Q01DX005 (ip), vehicle: Klucel (hydroxypropylcellulose) (HPC) 94 % of control | dose: 200.0 mg/kg/injection, schedule: Q01DX005 (ip), vehicle: Klucel (hydroxypropylcellulose) (HPC) 96 % of control

CC(=O)OCCn1c([N+](=O)[O-])cnc1/C=[N+](/C)[O-]
inactive: dose: 50.0 mg/kg/injection, schedule: Q01DX009 (ip), vehicle: saline 101 % of control | dose: 100.0 mg/kg/injection, schedule: Q01DX009 (ip), vehicle: saline 102 % of control | dose: 200.0 mg/kg/injection, schedule: Q01DX009 (ip), vehicle: saline 103 % of control

O=C1Nc2ccc(Br)cc2/C1=C/C(=O)c1ccccc1
inactive: [18] 111 % of control | [12] 101 % of control | [13] 103 % of control

COc1ccc(S(=O)(=O)N/N=C/c2cc([N+](=O)[O-])cc(I)c2O)cc1
inactive: [14] 101 % of control | [15] 100 % of control | [16] 117 % of control

COC(=O)C1(CC(=O)c2ccc(OC)cc2)NC(=S)NC(=O)C1C#N (configuration not stated)
inactive: [6] 100 % of control | [7] 98 % of control | [8] 86 % of control

O=C1C(Br)=CC2C1C1C=CC2(Br)C1=O (configuration not stated)
inactive: dose: 30.0 mg/kg/injection, schedule: Q01DX005 (ip), vehicle: saline with Tween-80 105 % of control and 107 % of control | dose: 60.0 mg/kg/injection, schedule: Q01DX005 (ip), vehicle: saline with Tween-80 111 % of control and 112 % of control and 118 % of control | dose: 120.0 mg/kg/injection, schedule: Q01DX005 (ip), vehicle: saline with Tween-80 101 % of control and 111 % of control and 113 % of control | dose: 240.0 mg/kg/injection, schedule: Q01DX005 (ip), vehicle: saline with Tween-80 120 % of control

COC(=O)C(O)C1OC(COCc2ccccc2)C(OCc2ccccc2)C1OCc1ccccc1 (configuration not stated)
inactive: dose: 12.5 mg/kg/injection, schedule: Q01DX009 (ip), vehicle: distilled water + alcohol 100 % of control | dose: 25.0 mg/kg/injection, schedule: Q01DX009 (ip), vehicle: distilled water + alcohol 100 % of control | dose: 50.0 mg/kg/injection, schedule: Q01DX009 (ip), vehicle: distilled water + alcohol 103 % of control | dose: 100.0 mg/kg/injection, schedule: Q01DX009 (ip), vehicle: distilled water + alcohol 100 % of control | dose: 200.0 mg/kg/injection, schedule: Q01DX009 (ip), vehicle: distilled water + alcohol 112 % of control
